# Experimental data reported in patent publication US20080009418A1, “Selective Inhibitors” (Alchemia LTD., priority 2004, published 2008).
# Columns and labels:
# Conditions in all cases: compound at 10 μM
# Mouse urotensin (mUR2) = target: T1, Mouse urotensin (mUR2) (Mus musculus, UniProt Q8VIH9); assay: Radioligand binding, mouse urotensin mUR2 membranes, FlashPlate, [125I]-Urotensin II
# T1 construct: purchased Perkin Elmer Biosignal
# T1 sequence (Q8VIH9 1-385): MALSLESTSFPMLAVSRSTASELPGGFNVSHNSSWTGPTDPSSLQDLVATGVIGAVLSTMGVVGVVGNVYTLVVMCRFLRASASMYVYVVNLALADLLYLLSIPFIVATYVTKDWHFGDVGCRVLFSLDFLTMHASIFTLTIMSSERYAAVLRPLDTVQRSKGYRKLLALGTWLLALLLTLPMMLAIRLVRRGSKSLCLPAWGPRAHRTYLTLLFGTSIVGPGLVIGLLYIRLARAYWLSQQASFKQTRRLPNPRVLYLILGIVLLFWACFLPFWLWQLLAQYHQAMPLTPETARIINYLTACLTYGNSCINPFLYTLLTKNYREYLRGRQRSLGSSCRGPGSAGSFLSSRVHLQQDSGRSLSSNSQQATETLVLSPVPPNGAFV
# In short: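 Cloned mouse urotensin (mUR2) receptor membranes from Perkin Elmer Biosignal were immobilized in FlashPlate microplates using a proprietary coating. Each well got 19.5 μl buffer, then 0.5 μl of DMSO, reference ligand, or compound. Adding 5 μl of [125I]-Urotensin II, diluted to 5× final concentration in binding buffer, started binding. Plates were sealed with TopSeal-A and incubated 1 hour at room temperature in the dark. Wells were counted for 30 seconds each on a TopCount after a 60-second delay, and percentage inhibition was calculated.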
# Human μ-opioid (MOP) = target: T2, Human μ-opioid (MOP) (Homo sapiens, UniProt P35372); assay: Radioligand binding, human μ-opioid (MOP) membranes, FlashPlate, [3H]-Naloxone
# T2 construct: purchased Perkin Elmer Biosignal
# T2 sequence (P35372 whole entry): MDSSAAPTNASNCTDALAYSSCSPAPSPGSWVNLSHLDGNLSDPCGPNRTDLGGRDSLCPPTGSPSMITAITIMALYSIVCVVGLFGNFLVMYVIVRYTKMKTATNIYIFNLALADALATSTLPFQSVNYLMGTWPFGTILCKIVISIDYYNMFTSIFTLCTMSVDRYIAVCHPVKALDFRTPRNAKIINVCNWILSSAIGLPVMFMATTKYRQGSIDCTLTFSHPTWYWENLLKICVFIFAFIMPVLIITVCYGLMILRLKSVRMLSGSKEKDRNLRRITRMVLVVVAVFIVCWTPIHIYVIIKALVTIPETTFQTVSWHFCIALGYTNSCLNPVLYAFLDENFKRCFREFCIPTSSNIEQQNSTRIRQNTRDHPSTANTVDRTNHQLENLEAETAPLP
# In short: (§1)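 Cloned human receptor membranes were coated onto FlashPlate wells and incubated with radioligand and compound (added from a 0.5 mM DMSO daughter plate) for 1 hour at room temperature in the dark. Scintillation counting gave percent inhibition, with DMSO defining total and reference ligand defining non-specific binding.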
# [1] = target: T3, Human melanin-concentrating hormone (MCH1) (Homo sapiens, UniProt Q99705); assay: Radioligand binding, human melanin-concentrating hormone MCH1 membranes, FlashPlate, [125I]-S36057
# T3 construct: purchased Perkin Elmer Biosignal
# T3 sequence (Q99705 whole entry): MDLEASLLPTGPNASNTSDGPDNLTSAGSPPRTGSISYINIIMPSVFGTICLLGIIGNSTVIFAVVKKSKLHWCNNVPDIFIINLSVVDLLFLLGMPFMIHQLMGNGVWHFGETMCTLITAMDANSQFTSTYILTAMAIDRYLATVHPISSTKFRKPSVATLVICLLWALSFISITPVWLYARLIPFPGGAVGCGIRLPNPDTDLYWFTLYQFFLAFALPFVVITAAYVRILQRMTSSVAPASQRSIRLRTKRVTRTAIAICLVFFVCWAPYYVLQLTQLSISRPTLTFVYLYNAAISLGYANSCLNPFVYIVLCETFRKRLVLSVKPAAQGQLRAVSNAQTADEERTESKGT
# In short: as §1
# Human κ-Opioid (KOP) = target: T4, Human κ-Opioid (KOP) (Homo sapiens, UniProt P41145); assay: Radioligand binding, human κ-opioid (KOP) membranes, filtration, [3H]-Diprenorphine
# T4 construct: purchased Perkin Elmer Biosignal
# T4 sequence (P41145 whole entry): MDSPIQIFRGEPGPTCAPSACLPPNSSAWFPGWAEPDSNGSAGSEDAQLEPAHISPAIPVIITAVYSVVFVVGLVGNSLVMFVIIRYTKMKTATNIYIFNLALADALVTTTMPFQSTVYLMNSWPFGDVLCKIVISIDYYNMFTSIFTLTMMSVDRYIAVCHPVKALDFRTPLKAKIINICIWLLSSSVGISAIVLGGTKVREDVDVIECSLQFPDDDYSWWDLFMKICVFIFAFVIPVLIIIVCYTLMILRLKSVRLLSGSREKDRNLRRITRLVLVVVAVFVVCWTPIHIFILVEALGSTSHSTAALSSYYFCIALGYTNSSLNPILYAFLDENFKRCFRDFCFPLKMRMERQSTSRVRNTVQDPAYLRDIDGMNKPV
# In short: (§2)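 Membranes from cloned human receptors were incubated with compound and radioligand for 1 hour at room temperature. Bound ligand was collected on 0.3% PEI-soaked filters, washed with cold 50 mM Tris-HCl pH 7.4, and counted by scintillation. Percent inhibition was computed against DMSO totals and reference-ligand nonspecific wells.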
# Human neurokinin (NK1) = target: T5, Human neurokinin (NK1) (Homo sapiens, UniProt P25103); assay: Radioligand binding, human neurokinin NK1 membranes, filtration, [125I]-Substance P
# T5 construct: purchased Perkin Elmer Biosignal
# T5 sequence (P25103 whole entry): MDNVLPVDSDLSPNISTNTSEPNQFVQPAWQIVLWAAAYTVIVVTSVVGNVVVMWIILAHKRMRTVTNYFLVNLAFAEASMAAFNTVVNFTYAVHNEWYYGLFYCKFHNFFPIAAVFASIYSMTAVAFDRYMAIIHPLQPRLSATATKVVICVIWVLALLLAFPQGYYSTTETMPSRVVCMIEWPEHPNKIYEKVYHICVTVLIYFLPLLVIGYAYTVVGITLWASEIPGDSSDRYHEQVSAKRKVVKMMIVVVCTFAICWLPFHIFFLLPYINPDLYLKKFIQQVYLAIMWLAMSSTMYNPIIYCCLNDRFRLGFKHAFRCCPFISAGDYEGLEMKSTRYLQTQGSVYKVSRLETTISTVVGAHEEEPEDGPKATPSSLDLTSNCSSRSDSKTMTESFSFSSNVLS
# In short: as §2
# Human opioid (ORL1) = target: T6, Human opioid (ORL1) (Homo sapiens, UniProt P41146); assay: Radioligand binding, human opioid ORL1 membranes, FlashPlate, [125I]-Nociceptin
# T6 construct: purchased Perkin Elmer Biosignal
# T6 sequence (P41146 whole entry): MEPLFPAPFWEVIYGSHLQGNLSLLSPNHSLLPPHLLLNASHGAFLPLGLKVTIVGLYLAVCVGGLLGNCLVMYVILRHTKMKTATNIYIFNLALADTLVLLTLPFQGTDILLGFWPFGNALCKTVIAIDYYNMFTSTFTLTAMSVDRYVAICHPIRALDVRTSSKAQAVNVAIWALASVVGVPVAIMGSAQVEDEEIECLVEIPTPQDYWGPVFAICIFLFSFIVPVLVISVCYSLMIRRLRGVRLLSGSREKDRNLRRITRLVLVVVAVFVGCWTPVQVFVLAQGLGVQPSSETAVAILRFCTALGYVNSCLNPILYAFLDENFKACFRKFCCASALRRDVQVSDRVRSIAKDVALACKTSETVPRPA
# In short: as §1
# Human Melanocortin (MC4) = target: T7, Human Melanocortin (MC4) (Homo sapiens, UniProt P32245); assay: Radioligand binding, human melanocortin MC4 membranes, FlashPlate, [125I]-NDP-αMSH
# T7 construct: purchased Perkin Elmer Biosignal
# T7 sequence (P32245 whole entry): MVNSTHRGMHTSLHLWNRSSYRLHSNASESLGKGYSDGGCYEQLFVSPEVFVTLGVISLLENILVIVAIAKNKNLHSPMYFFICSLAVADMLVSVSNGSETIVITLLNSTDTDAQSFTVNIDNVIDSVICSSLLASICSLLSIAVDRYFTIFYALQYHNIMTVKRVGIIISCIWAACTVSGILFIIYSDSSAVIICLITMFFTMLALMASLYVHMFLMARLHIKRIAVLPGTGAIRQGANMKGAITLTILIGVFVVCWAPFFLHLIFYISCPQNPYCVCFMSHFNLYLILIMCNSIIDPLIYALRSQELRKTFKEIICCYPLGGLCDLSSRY
# In short: as §1
# Human melanocortin (MC5) = target: T8, Human melanocortin (MC5) (Homo sapiens, UniProt P33032); assay: Radioligand binding, human melanocortin MC5 membranes, FlashPlate, [125I]-NDP-αMSH
# T8 construct: purchased Perkin Elmer Biosignal
# T8 sequence (P33032 whole entry): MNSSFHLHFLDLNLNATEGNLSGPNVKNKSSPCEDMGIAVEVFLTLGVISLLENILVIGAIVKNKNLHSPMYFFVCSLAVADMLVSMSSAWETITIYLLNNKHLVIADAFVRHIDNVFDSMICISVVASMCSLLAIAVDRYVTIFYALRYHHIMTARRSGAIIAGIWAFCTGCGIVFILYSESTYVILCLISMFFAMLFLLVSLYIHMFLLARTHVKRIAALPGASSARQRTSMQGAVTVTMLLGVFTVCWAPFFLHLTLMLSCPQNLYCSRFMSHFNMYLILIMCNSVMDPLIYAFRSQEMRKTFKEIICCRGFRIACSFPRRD
# In short: as §1
# [2] = target: T9, Human neuropeptide Y (NPY-Y1) (Homo sapiens, UniProt P25929); assay: Radioligand binding, human neuropeptide Y NPY-Y1 membranes, FlashPlate, [125I]-PYY
# T9 construct: purchased Perkin Elmer Biosignal
# T9 sequence (P25929 1-384): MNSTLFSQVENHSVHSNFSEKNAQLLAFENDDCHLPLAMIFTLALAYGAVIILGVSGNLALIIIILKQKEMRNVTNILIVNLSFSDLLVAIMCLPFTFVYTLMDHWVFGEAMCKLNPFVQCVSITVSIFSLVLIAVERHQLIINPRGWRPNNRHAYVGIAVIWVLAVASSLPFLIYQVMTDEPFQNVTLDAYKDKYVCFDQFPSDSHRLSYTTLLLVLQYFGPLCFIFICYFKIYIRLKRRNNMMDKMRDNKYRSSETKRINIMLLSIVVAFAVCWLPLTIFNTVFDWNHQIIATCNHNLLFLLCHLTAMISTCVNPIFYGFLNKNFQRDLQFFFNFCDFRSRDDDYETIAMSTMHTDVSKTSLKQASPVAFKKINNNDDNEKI
# In short: as §1
# Human δ-opioid (DOP) = target: T10, Human δ-opioid (DOP) (Homo sapiens, UniProt P41143); assay: Radioligand binding, human δ-opioid (DOP) membranes, FlashPlate, [3H]-Bremazocine
# T10 construct: purchased Perkin Elmer Biosignal
# T10 sequence (P41143 whole entry): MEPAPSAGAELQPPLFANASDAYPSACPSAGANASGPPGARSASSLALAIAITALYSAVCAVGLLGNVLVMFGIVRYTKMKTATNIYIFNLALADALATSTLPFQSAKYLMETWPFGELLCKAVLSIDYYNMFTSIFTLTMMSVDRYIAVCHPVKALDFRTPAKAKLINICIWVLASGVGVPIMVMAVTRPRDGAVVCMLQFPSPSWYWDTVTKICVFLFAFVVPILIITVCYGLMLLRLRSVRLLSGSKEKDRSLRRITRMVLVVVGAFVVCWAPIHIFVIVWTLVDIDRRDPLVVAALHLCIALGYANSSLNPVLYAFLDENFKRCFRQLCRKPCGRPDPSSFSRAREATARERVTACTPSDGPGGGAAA
# In short: as §1
# Human Melanocortin (MC3) = target: T11, Human Melanocortin (MC3) (Homo sapiens, UniProt P41968); assay: Radioligand binding, human melanocortin MC3 membranes, FlashPlate, [125I]-NDP-αMSH
# T11 construct: purchased Perkin Elmer Biosignal
# T11 sequence (P41968 whole entry): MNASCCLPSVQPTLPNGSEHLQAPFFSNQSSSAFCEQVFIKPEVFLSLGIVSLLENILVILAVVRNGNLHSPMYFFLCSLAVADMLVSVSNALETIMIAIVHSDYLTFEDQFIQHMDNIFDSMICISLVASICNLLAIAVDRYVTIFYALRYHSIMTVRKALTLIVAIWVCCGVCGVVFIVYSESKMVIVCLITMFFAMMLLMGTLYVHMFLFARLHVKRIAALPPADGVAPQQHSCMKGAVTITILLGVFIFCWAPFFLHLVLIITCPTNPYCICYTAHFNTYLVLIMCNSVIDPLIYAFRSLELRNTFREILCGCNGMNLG
# In short: as §1
smiles,measurement,setting,value
CSC1O[C@H](COCc2ccc(-c3ccccc3)cc2)[C@@H](O)[C@@H](OCc2ccc(Cl)cc2)[C@H]1NC(=O)CNC(=N)N (stereo partly shown) [compound 275],A11: inhibition of radioligand binding,"Mouse urotensin (mUR2); [125I]-Urotensin II, FlashPlate",− (“−” indicates less than 50% inhibition at 10 μM)
same,A7: inhibition of radioligand binding,"Human μ-opioid (MOP); [3H]-Naloxone, FlashPlate",− (“−” indicates less than 50% inhibition at 10 μM)
same,A6: inhibition of radioligand binding,"[1]; [125I]-S36057, FlashPlate",− (“−” indicates less than 50% inhibition at 10 μM)
same,A2: inhibition of radioligand binding,"Human κ-Opioid (KOP); [3H]-Diprenorphine, filtration",− (“−” indicates less than 50% inhibition at 10 μM)
same,A8: inhibition of radioligand binding,"Human neurokinin (NK1); [125I]-Substance P, filtration",+ (“+” indicates greater than 50% inhibition at 10 μM)
same,A10: inhibition of radioligand binding,"Human opioid (ORL1); [125I]-Nociceptin, FlashPlate",− (“−” indicates less than 50% inhibition at 10 μM)
same,A4: inhibition of radioligand binding,"Human Melanocortin (MC4); [125I]-NDP-αMSH, FlashPlate",+ (“+” indicates greater than 50% inhibition at 10 μM)
same,A5: inhibition of radioligand binding,"Human melanocortin (MC5); [125I]-NDP-αMSH, FlashPlate",+ (“+” indicates greater than 50% inhibition at 10 μM)
same,A9: inhibition of radioligand binding,"[2]; [125I]-PYY, FlashPlate",− (“−” indicates less than 50% inhibition at 10 μM)
same,A1: inhibition of radioligand binding,"Human δ-opioid (DOP); [3H]-Bremazocine, FlashPlate",− (“−” indicates less than 50% inhibition at 10 μM)
same,A3: inhibition of radioligand binding,"Human Melanocortin (MC3); [125I]-NDP-αMSH, FlashPlate",− (“−” indicates less than 50% inhibition at 10 μM)
CO[C@H]1[C@H](O)[C@@H](COCc2ccccc2)OC(OCc2ccc3ccccc3c2)[C@@H]1NC(=O)CCCN (stereo partly shown) [compound 76],A11 radioligand binding inhibition,Mouse urotensin (mUR2); mouse urotensin mUR2 membranes,− (“−” indicates less than 50% inhibition at 10 μM)
same,A7 radioligand binding inhibition,Human μ-opioid (MOP); human μ-opioid (MOP) membranes,− (“−” indicates less than 50% inhibition at 10 μM)
same,A6 radioligand binding inhibition,[1]; human MCH1 membranes,− (“−” indicates less than 50% inhibition at 10 μM)
same,A2 radioligand binding inhibition,Human κ-Opioid (KOP); human κ-opioid (KOP) membranes,− (“−” indicates less than 50% inhibition at 10 μM)
same,A8 radioligand binding inhibition,Human neurokinin (NK1); human neurokinin NK1 membranes,+ (“+” indicates greater than 50% inhibition at 10 μM)
same,A10 radioligand binding inhibition,Human opioid (ORL1); human ORL1 membranes,− (“−” indicates less than 50% inhibition at 10 μM)
same,A4 radioligand binding inhibition,Human Melanocortin (MC4); human melanocortin MC4 membranes,− (“−” indicates less than 50% inhibition at 10 μM)
same,A5 radioligand binding inhibition,Human melanocortin (MC5); human melanocortin MC5 membranes,− (“−” indicates less than 50% inhibition at 10 μM)
same,A9 radioligand binding inhibition,[2]; human NPY-Y1 membranes,− (“−” indicates less than 50% inhibition at 10 μM)
same,A1 radioligand binding inhibition,Human δ-opioid (DOP); human δ-opioid (DOP) membranes,− (“−” indicates less than 50% inhibition at 10 μM)
same,A3 radioligand binding inhibition,Human Melanocortin (MC3); human melanocortin MC3 membranes,− (“−” indicates less than 50% inhibition at 10 μM)
COC[C@H]1OC(OCc2ccccc2)[C@H](NC(=O)CCCN)[C@@H](OCc2cccc(O)c2)[C@@H]1O (stereo partly shown) [compound 136],"A11 radioligand binding, percentage inhibition",Mouse urotensin (mUR2); [125I]-Urotensin II,− (“−” indicates less than 50% inhibition at 10 μM)
same,"A7 radioligand binding, percentage inhibition",Human μ-opioid (MOP); [3H]-Naloxone,− (“−” indicates less than 50% inhibition at 10 μM)
same,"A6 radioligand binding, percentage inhibition",[1]; [125I]-S36057,− (“−” indicates less than 50% inhibition at 10 μM)
same,"A2 radioligand binding, percentage inhibition",Human κ-Opioid (KOP); [3H]-Diprenorphine,− (“−” indicates less than 50% inhibition at 10 μM)
same,"A8 radioligand binding, percentage inhibition",Human neurokinin (NK1); [125I]-Substance P,+ (“+” indicates greater than 50% inhibition at 10 μM)
same,"A10 radioligand binding, percentage inhibition",Human opioid (ORL1); [125I]-Nociceptin,− (“−” indicates less than 50% inhibition at 10 μM)
same,"A4 radioligand binding, percentage inhibition",Human Melanocortin (MC4); [125I]-NDP-αMSH,− (“−” indicates less than 50% inhibition at 10 μM)
same,"A5 radioligand binding, percentage inhibition",Human melanocortin (MC5); [125I]-NDP-αMSH,− (“−” indicates less than 50% inhibition at 10 μM)
same,"A9 radioligand binding, percentage inhibition",[2]; [125I]-PYY,− (“−” indicates less than 50% inhibition at 10 μM)
same,"A1 radioligand binding, percentage inhibition",Human δ-opioid (DOP); [3H]-Bremazocine,− (“−” indicates less than 50% inhibition at 10 μM)
same,"A3 radioligand binding, percentage inhibition",Human Melanocortin (MC3); [125I]-NDP-αMSH,− (“−” indicates less than 50% inhibition at 10 μM)
"COC[C@H]1OC(OCc2ccc(Cl)cc2)[C@H](NC(=O)CCCN)[C@@H](OCc2ccc3ccccc3c2)[C@@H]1O (single isomer, unassigned) [compound 343]","A11: inhibition of radioligand binding, mouse urotensin (mUR2)",Mouse urotensin (mUR2); [125I]-Urotensin II,− (“−” indicates less than 50% inhibition at 10 μM)
same,"A7: inhibition of radioligand binding, human μ-opioid (MOP)",Human μ-opioid (MOP); [3H]-Naloxone,− (“−” indicates less than 50% inhibition at 10 μM)
same,"A6: inhibition of radioligand binding, human melanin-concentrating hormone (MCH1)",[1]; [125I]-S36057,− (“−” indicates less than 50% inhibition at 10 μM)
same,"A2: inhibition of radioligand binding, human κ-opioid (KOP)",Human κ-Opioid (KOP); [3H]-Diprenorphine,− (“−” indicates less than 50% inhibition at 10 μM)
same,"A8: inhibition of radioligand binding, human neurokinin (NK1)",Human neurokinin (NK1); [125I]-Substance P,+ (“+” indicates greater than 50% inhibition at 10 μM)
same,"A10: inhibition of radioligand binding, human opioid (ORL1)",Human opioid (ORL1); [125I]-Nociceptin,− (“−” indicates less than 50% inhibition at 10 μM)
same,"A4: inhibition of radioligand binding, human melanocortin (MC4)",Human Melanocortin (MC4); [125I]-NDP-αMSH,− (“−” indicates less than 50% inhibition at 10 μM)
same,"A5: inhibition of radioligand binding, human melanocortin (MC5)",Human melanocortin (MC5); [125I]-NDP-αMSH,− (“−” indicates less than 50% inhibition at 10 μM)
same,"A9: inhibition of radioligand binding, human neuropeptide Y (NPY-Y1)",[2]; [125I]-PYY,− (“−” indicates less than 50% inhibition at 10 μM)
same,"A1: inhibition of radioligand binding, human δ-opioid (DOP)",Human δ-opioid (DOP); [3H]-Bremazocine,− (“−” indicates less than 50% inhibition at 10 μM)
same,"A3: inhibition of radioligand binding, human melanocortin (MC3)",Human Melanocortin (MC3); [125I]-NDP-αMSH,− (“−” indicates less than 50% inhibition at 10 μM)
CO[C@H]1[C@H](O)[C@@H](COCc2ccc(Cl)cc2)OC(OCc2ccccc2)[C@@H]1NC(=O)CCCN (stereo partly shown) [compound 92],"A11 radioligand binding, percentage inhibition",Mouse urotensin (mUR2); [125I]-Urotensin II,− (“−” indicates less than 50% inhibition at 10 μM)
same,"A7 radioligand binding, percentage inhibition",Human μ-opioid (MOP); [3H]-Naloxone,− (“−” indicates less than 50% inhibition at 10 μM)
same,"A6 radioligand binding, percentage inhibition",[1]; [125I]-S36057,− (“−” indicates less than 50% inhibition at 10 μM)
same,"A2 radioligand binding, percentage inhibition",Human κ-Opioid (KOP); [3H]-Diprenorphine,− (“−” indicates less than 50% inhibition at 10 μM)
same,"A8 radioligand binding, percentage inhibition",Human neurokinin (NK1); [125I]-Substance P,+ (“+” indicates greater than 50% inhibition at 10 μM)
same,"A10 radioligand binding, percentage inhibition",Human opioid (ORL1); [125I]-Nociceptin,− (“−” indicates less than 50% inhibition at 10 μM)
same,"A4 radioligand binding, percentage inhibition",Human Melanocortin (MC4); [125I]-NDP-αMSH,− (“−” indicates less than 50% inhibition at 10 μM)
same,"A5 radioligand binding, percentage inhibition",Human melanocortin (MC5); [125I]-NDP-αMSH,− (“−” indicates less than 50% inhibition at 10 μM)
same,"A9 radioligand binding, percentage inhibition",[2]; [125I]-PYY,− (“−” indicates less than 50% inhibition at 10 μM)
same,"A1 radioligand binding, percentage inhibition",Human δ-opioid (DOP); [3H]-Bremazocine,− (“−” indicates less than 50% inhibition at 10 μM)
same,"A3 radioligand binding, percentage inhibition",Human Melanocortin (MC3); [125I]-NDP-αMSH,− (“−” indicates less than 50% inhibition at 10 μM)
